28 molecules from patent publication US20250082633A1, “COMPOUNDS AND METHODS FOR MODULATING SPLICING” (REMIX THERAPEUTICS INC., priority 2021, published 2025) can be followed below.

Experiment [1] deals with HiBiT-tagged MYB protein in K562 cells. In words: HiBit protein abundance assay, MYB. It counts as cell-based, human. Conditions: K562 HiBiT-modified cells, 24 hours, luminescence. The protocol: Compounds described herein were used to screen for effects on quantitative protein abundance using a HiBit assay system (Promega). Quantitative protein abundance was determined by measuring the protein levels of HiBit-tagged protein targets expressed in cell culture via luminescence using the Nano-Glo HiBiT Lytic Detection System, which uses a split complementation assay format to reconstitute NanoBiT enzyme to generate a luminescent signal. A protein abundance assay was developed such that endogenous protein targets could be modified with the HiBiT peptide tag and their abundance could be assessed after compound treatment. Briefly, K562 cell lines containing a HiBiT-modification were treated with various compounds described herein (e.g., compounds of Formulas (I), (II), or (III)). After treatment for 24 hours, the protein abundance of a specific target was determined by measuring luminescence. • Promega Nano-Glo HiBiT Lytic Detection System (cat #N3030) • Corning 384-well TC-treated microplates (cat #3570) • Synthego Engineered Cells Knock-In Clones [table] Cells were maintained in IMDM with 10% FBS. Before the assay, cells were diluted with phenolphthalein-free growth media (IMDM+1% FBS media) and were seeded in a 384-well plate at a density of 10000 cells/well (for each cell line listed in Table 6). Each compound was prepared as a 10-point 3-fold serial dilution in DMSO with the top dose at a final concentration of 10 μM in the well. Unmodified K562 cells were added at the previously specified density with DMSO to serve as an assay baseline and positive control (PC) and DMSO only with the respective modified cell lines was added to the negative control (NC) columns. Final DMSO concentration was kept at or below 0.25%. Treated cell plates were placed in an incubator at 37° C. with 5% CO2 for 24 hours. After 24 hours, 25 μL of Complete HiBit Lytic reagent was added to each well at room temperature (e.g. one plate requiring 10 mL Lytic Buffer, 100 μL LgBiT Protein, 200 μL Lytic Substrate), shaken for 5 minutes at 600 RPM, then left to sit for 10 minutes for signal to stabilize before reading on a Spark Cyto plate reader (Tecan) with a 500 ms measurement time. To determine compound effects on protein abundance of each target in Table 6, the percent response for each respective cell line was calculated at each compound concentration as follows: For the normalized response at each concentration, a four-parameter logistical regression was fit to the data and the response was interpolated at the 50% value to determine a concentration for protein abundance at 50% (IC50) the untreated control.
(In general: The HiBiT peptide binds its large partner to form an active luciferase.)

A further experiment deals with SMN2 mRNA. In words: RT-qPCR splicing assay, gene panel, SMN2 canonical junction (CJ) mRNA. Format: cell-based. Conditions: Homo sapiens, read-out: SMN2 CJ IC50. An outline of the steps:
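A673 (DMEM/10% FBS) or K562 (IMDM/10% FBS) cells were treated 24 h at 37 °C with an 11-point 3-fold dilution series, top final 10 uM, DMSO ≤0.25%. Lysates underwent one-step RT-qPCR for the canonical-junction isoform with GAPDH, GUSB or PPIA as housekeeper. ΔΔCt versus DMSO was converted to RQ (2^−ΔΔCt), then to percent response.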
A general note: In qPCR the cycle at which signal appears reflects the starting amount.

Setting [2] is: decrease in CJ mRNA levels, larger panel of genes, Table 3.

Counter-ions that a name gives are not always drawn. Like-named read-outs stand apart in the source and are kept apart here.

A word on the IC50: it is the concentration needed to halve the response being measured. As to `Cc1c(O)c(-c2ccc3nn(C4CCNCC4)nc3n2)cc2cn(C)nc12` [Compound 113, 2,7-dimethyl-5-[2-(4-piperidyl)triazolo[4,5-b]pyridin-5-yl]indazol-6-ol], the concentration for half-maximal inhibition (IC50) (in experiment [1]; in the experiment with SMN2 mRNA (setting [2])) was 1000 to 10000 nM throughout.
`COc1cc2nn(C3CCNCC3)cc2cc1-c1cc(C)c2nc(C)cn2n1` [Compound 159, 6-(6-methoxy-2-(piperidin-4-yl)-2H-indazol-5-yl)-2,8-dimethylimidazo[1,2-b]pyridazine]: the IC50 (in experiment [1]; with SMN2 mRNA (setting [2])) was greater than 10000 nM in each case.
On to `Cc1cn2nc(-c3cc(F)c4nn(C5CCN(C6CCC6)C6(CC6)C5)cc4c3)cc(C)c2n1` (centres unmarked) [Compound 186, 6-[2-(4-cyclobutyl-4-azaspiro[2.5]octan-7-yl)-7-fluoro-indazol-5-yl]-2,8-dimethyl-imidazo[1,2-b]pyridazine], for which the results for the IC50 (in experiment [1]; in the experiment with SMN2 mRNA) were 100 to 1000 nM and less than 100 nM, respectively.
For the molecule `Cn1cc2cc(-c3cc(F)c4nn(C5CCNCC5)cc4c3)cc(C#N)c2n1` [Compound 130, 5-[7-fluoro-2-(4-piperidyl)indazol-5-yl]-2-methyl-indazole-7-carbonitrile], the IC50 in experiment [1] is 100 to 1000 nM; in the experiment on SMN2 mRNA (setting [2]) it was less than 100 nM.
For `COc1cc(-c2cc3cn(C)nc3cc2O)nc2cn(C3CCNCC3)nc12` [Compound 140, 5-[7-methoxy-2-(4-piperidyl)pyrazolo[4,3-b]pyridin-5-yl]-2-methyl-indazol-6-ol], in that order: 1000 to 10000 nM and 100 to 1000 nM.
For `Cc1cc(-n2cc3cc(N4CCNCC4)cc(F)c3n2)cc2cn(C)nc12` [Compound 117, 2-(2,7-dimethylindazol-5-yl)-7-fluoro-5-piperazin-1-yl-indazole], in that order: 1000 to 10000 nM and 100 to 1000 nM.
As to `Cn1cc2cc(-c3cc(F)c4nn(C5CCNCC5)nc4c3)cc(F)c2n1` [Compound 103, 4-fluoro-6-(7-fluoro-2-methyl-indazol-5-yl)-2-(4-piperidyl) benzotriazole], the IC50 in experiment [1] lay in the range of 1000 to 10000 nM; in the experiment with SMN2 mRNA (setting [2]), 100 to 1000 nM.
For `Cn1cc2cc(-c3cc(F)c4nn(C5CCNC6(CC6)C5)cc4c3)cc(F)c2n1` (centres unmarked) [Compound 108, 2-(4-azaspiro[2.5]octan-7-yl)-7-fluoro-5-(7-fluoro-2-methyl-indazol-5-yl)indazole], in that order: 100 to 1000 nM and 100 to 1000 nM.
For `Cn1cc2cc(-c3cc(F)c4nn(C5CCNCC5)cc4c3)ccc2n1` [Compound 145, 7-fluoro-5-(2-methylindazol-5-yl)-2-(4-piperidyl)indazole], in that order: 100 to 1000 nM and less than 100 nM.
The corresponding values for `Cc1cn2nc(-c3cc(F)c4nn(C5CCN(CCF)CC5)cc4c3)cc(C)c2n1` [Compound 152] are 100 to 1000 nM and less than 100 nM.
For the molecule `Cc1cn2nc(-c3cc(F)c4nn([C@@H]5CCNC[C@H]5F)cc4c3)cc(C)c2n1` [Compound 168, 6-(7-fluoro-2-((3R,4R)-3-fluoropiperidin-4-yl)-2H-indazol-5-yl)-2,8-dimethylimidazo [1,2-b]pyridazine], the IC50 in experiment [1] is 100 to 1000 nM; in the experiment with SMN2 mRNA (setting [2]), less than 100 nM.
The corresponding values for `Cc1cn2nc(-c3cc(F)c4nn(C5CCN(C)CC5)cc4c3)cc(C)c2n1` [Compound 150, 6-[7-fluoro-2-(1-methyl-4-piperidyl)indazol-5-yl]-2,8-dimethyl-imidazo[1,2-b]pyridazine] are 100 to 1000 nM and less than 100 nM.
For `COC1=C(C)C2N=C(C)OC2C=C1c1cc(F)c2nn(C3CCNCC3)cc2n1` (centres unmarked) [Compound 144], in that order: 1000 to 10000 nM and 1000 to 10000 nM.
The corresponding values for `Cc1cn2nc(-c3cc4cn(C5CCNCC5)nc4c(OCc4ccccc4)n3)cc(C)c2n1` [Compound 153, 6-[7-benzyloxy-2-(4-piperidyl)pyrazolo [3,4-c]pyridin-5-yl]-2,8-dimethyl-imidazo[1,2-b]pyridazine] are 1000 to 10000 nM and greater than 10000 nM.
`Cc1cn2nc(-c3cc(F)c4nn(C5CCN(CCO)CC5)cc4c3)cc(C)c2n1` [Compound 160, 2-[4-[5-(2,8-dimethylimidazo[1,2-b]pyridazin-6-yl)-7-fluoro-indazol-2-yl]-1-piperidyl]ethanol]: the half-inhibitory concentration (IC50) in experiment [1] is 100 to 1000 nM; with SMN2 mRNA, less than 100 nM.
As for `Cc1cn2nc(-c3cc(O)c4nn(C5CCNCC5)cc4c3)cc(C)c2n1` [Compound 156, 5-(2,8-dimethylimidazo[1,2-b]pyridazin-6-yl)-2-(piperidin-4-yl)-2H-indazol-7-ol], the IC50 was in the range of 1000 to 10000 nM in experiment [1] and 100 to 1000 nM in the experiment with SMN2 mRNA (setting [2]).
For the molecule `Cc1cn2nc(-c3cc4cn(C5CCNCC5)nc4cn3)cc(C)c2n1` [Compound 147, 2,8-dimethyl-6-[2-(4-piperidyl)pyrazolo[3,4-c]pyridin-5-yl]imidazo[1,2-b]pyridazine], the IC50 (in experiment [1]; in the experiment with SMN2 mRNA (setting [2])) was 100 to 1000 nM in each case.
Take `Cc1cn2cc(-c3cc(F)c4nn(C5CCNCC5)cc4c3)cc(Cl)c2n1` [Compound 127, 5-(8-chloro-2-methylimidazo[1,2-a]pyridin-6-yl)-7-fluoro-2-(piperidin-4-yl)-2H-indazole hydrochloride salt]: the IC50 is 100 to 1000 nM in experiment [1] and less than 100 nM in the experiment with SMN2 mRNA (setting [2]).
With `Cc1c(O)c(-c2cc(F)c3nn(C4CCNCC4)cc3c2)cc2cn(C)nc12` [Compound 126, 5-[7-fluoro-2-(4-piperidyl)indazol-5-yl]-2,7-dimethyl-indazol-6-ol], the figures for the IC50 (in experiment [1]; in the experiment on SMN2 mRNA (setting [2])) were greater than 10000 nM and 1000 to 10000 nM, respectively.
For `Cc1cn2nc(-n3cc4cc(C5CCNCC5)cc(F)c4n3)cc(C)c2n1` [Compound 120, 6-[7-fluoro-5-(4-piperidyl)indazol-2-yl]-2,8-dimethyl-imidazo[1,2-b]pyridazine], in that order: 1000 to 10000 nM and 100 to 1000 nM.
For `Cc1cn2nc(-c3cc(F)c4nn(CC5CCNCC5)cc4c3)cc(C)c2n1` [Compound 212, 6-[7-fluoro-2-(4-piperidylmethyl)indazol-5-yl]-2,8-dimethyl-imidazo[1,2-b]pyridazine], in that order: 100 to 1000 nM and less than 100 nM.
The corresponding values for `Cc1cn2nc(-c3ccc4nn(C5CCNCC5)cc4c3)cc(C)c2n1` [Compound 192, 2,8-dimethyl-6-[2-(4-piperidyl)indazol-5-yl]imidazo[1,2-b]pyridazine] are 100 to 1000 nM and less than 100 nM.
Turning to `Cc1nc2c(C)c(O)c(-c3cc(F)c4nn(C5CCNCC5)cc4c3)cc2o1` [Compound 123, 6-[7-fluoro-2-(4-piperidyl)indazol-5-yl]-2,4-dimethyl-1,3-benzoxazol-5-ol], the IC50 fell in the range of 1000 to 10000 nM in experiment [1] and 100 to 1000 nM in the experiment with SMN2 mRNA (setting [2]).
Take `Cc1cn2cc(-c3cc(F)c4nn(C5CCNCC5)cc4c3)cc(F)c2n1` [Compound 129, 7-fluoro-5-(8-fluoro-2-methylimidazo[1,2-a]pyridin-6-yl)-2-(piperidin-4-yl)-2H-indazole]: the figures for the IC50 (in experiment [1]; with SMN2 mRNA (setting [2])) were 100 to 1000 nM and less than 100 nM, respectively.
The corresponding values for `Cc1cn2nc(-c3cc(F)c4nn([C@H]5CCNC6(CC6)C5)cc4c3)cc(C)c2n1` [Compound 172] are less than 100 nM and less than 100 nM.
For the molecule `Cc1cn2nc(-c3cc(F)c4nn(C5CCN(C6CCC6)CC5)cc4c3)cc(C)c2n1` [Compound 151, 6-[2-(1-cyclobutyl-4-piperidyl)-7-fluoro-indazol-5-yl]-2,8-dimethyl-imidazo [1,2-b] pyridazine], the IC50 (in experiment [1]; in the experiment with SMN2 mRNA) was less than 100 nM throughout.
Consider `Fc1cc(-c2ccc3ccncc3c2)cc2cn(C3CCNCC3)nc12` [Compound 158, 7-[7-fluoro-2-(4-piperidyl)indazol-5-yl]isoquinoline], for which the IC50 (in experiment [1]; in the experiment on SMN2 mRNA (setting [2])) was 1000 to 10000 nM in each case.
Regarding `Cc1cn2nc(-c3cc(F)c4nn(C5CCN(C)C6(CC6)C5)cc4c3)cc(C)c2n1` (centres unmarked) [Compound 174, 6-[7-fluoro-2-(4-methyl-4-azaspiro[2.5]octan-7-yl)indazol-5-yl]-2,8-dimethyl-imidazo[1,2-b]pyridazine], the results for the IC50 (in experiment [1]; with SMN2 mRNA (setting [2])) were 100 to 1000 nM and less than 100 nM, respectively.
